Measurements from PMC5668658 (Biochemistry and Biophysics Reports, 2015).

How the values were obtained:
Format in all cases: cell-based
[1] = target: T1, organic cation transporter 1 (OCT1/SLC22A1) (Homo sapiens, UniProt O15245); test: inhibition of OCT1-specific [3H]atenolol uptake in MDCKII cells stably expressing OCT1; MPP+ uptake also inhibited
T1 sequence (O15245 1-554): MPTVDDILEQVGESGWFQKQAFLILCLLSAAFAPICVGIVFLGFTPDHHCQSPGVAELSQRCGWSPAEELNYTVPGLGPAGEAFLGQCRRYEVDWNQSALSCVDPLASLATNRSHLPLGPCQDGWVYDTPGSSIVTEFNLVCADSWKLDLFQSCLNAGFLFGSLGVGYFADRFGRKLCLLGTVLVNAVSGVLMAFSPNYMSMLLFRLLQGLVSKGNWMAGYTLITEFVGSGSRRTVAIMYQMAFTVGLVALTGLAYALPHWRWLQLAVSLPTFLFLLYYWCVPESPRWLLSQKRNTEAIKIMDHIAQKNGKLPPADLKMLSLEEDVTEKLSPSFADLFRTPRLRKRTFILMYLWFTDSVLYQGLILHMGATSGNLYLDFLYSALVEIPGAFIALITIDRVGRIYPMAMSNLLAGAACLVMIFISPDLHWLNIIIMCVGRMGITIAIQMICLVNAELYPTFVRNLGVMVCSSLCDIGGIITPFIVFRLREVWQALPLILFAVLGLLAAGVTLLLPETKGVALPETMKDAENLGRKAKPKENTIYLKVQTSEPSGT

[2] = target: T1, organic cation transporter 1 (OCT1/SLC22A1); test: inhibition of OCT1-specific [3H]atenolol uptake at […] in MDCKII cells
[3] = target: T1, organic cation transporter 1 (OCT1/SLC22A1); test: inhibition of OCT1-specific [3H]atenolol uptake in MDCKII cells stably expressing OCT1

Row | SMILES | inhibition of OCT1-specific [3H]atenolol uptake at 100 μM in MDCKII cells [2] | further results
1 | O=c1c(O)c(-c2ccc(O)c(O)c2)oc2cc(O)cc(O)c12 [quercetin] | – | Ki [1]: 48 µM
2 | O=c1cc(-c2ccccc2)oc2cc(O)c(O)c(O)c12 [Baicalein] | exhibited the most potent inhibitory activity | –
3 | O=C(CCc1ccc(O)cc1)c1c(O)cc(O)cc1O[C@@H]1O[C@H](CO)[C@@H](O)[C@H](O)[C@H]1O [Phlorizin] | also exhibited inhibitory activities comparable to those of their aglycones | –
4 | O=C(CCc1ccc(O)cc1)c1c(O)cc(O)cc1O [phloretin] | – | Ki [3]: 38 µM
